The text below walks through data of patent US20210386367A1, “DEVICES AND SYSTEMS FOR GASTROINTESTINAL MICROBIOME DETECTION AND MANIPULATION” (Progenity, Inc., priority 2018, published 2021).

Converted amounts (≈) assume the structure as drawn. Read-outs that look alike come from different tables or passages of the source. A value given as a limit tells only on which side of the number the result lay.

Test [1] relates to Prevotella spp. clinical isolates. Briefly: MIC distribution against clinical isolates. It is filed as cell-based. To be noted: 30 Prevotella spp. isolates.
The subject of test [2] is Bacteroides non fragilis clinical isolates. As to the kind of experiment: MIC distribution against clinical isolates. The format is cell-based. To be noted: 29 Bacteroides non-fragilis isolates.
Test [3] relates to B. ovatus MMX 3503. Briefly: Broth microdilution MIC (time-kill study). The format is cell-based, Bacteroides ovatus.
Test [4] relates to B. vulgatus ATCC 8482. Briefly: Broth microdilution MIC (time-kill study). The format is cell-based, Bacteroides vulgatus. A general note: In broth dilution the organism is exposed to a series of concentrations in liquid medium.
Test [5] concerns E. coli (ATCC 25922, ATCC 35218, MMX 1312). Briefly: Agar dilution MIC (spontaneous mutation study; strain in conditions). The format is cell-based, Escherichia coli. To be noted: Escherichia coli. On the technique in general: Agar dilution tests growth on a series of plates holding different concentrations.
Test [6] deals with S. pneumoniae ATCC 49619. As to the kind of experiment: Time-kill assay. To be noted: 2×, 4×, 8× MIC; 2, 6, 24 hr. It is filed as cell-based, Streptococcus pneumoniae.
Test [7] concerns Streptococcus spp. (S. pneumoniae ATCC 49619, S. pyogenes ATCC 49399, S. agalactiae ATCC 13813). Briefly: Agar dilution MIC (spontaneous mutation study; strain in conditions). The format is cell-based.
Test [8] relates to B. vulgatus. As to the kind of experiment: Spontaneous mutation frequency and mutation prevention concentration (MPC). It is filed as cell-based. To be noted: B. vulgatus ATCC 8482. From the text: (§1) As used herein, “spontaneous mutation frequency” refers to the rate at which mutations arise in a bacterium that can lead to resistance to develop to an antimicrobial agent. “Mutation prevention concentration” or “MPC” refers to the lowest concentration of antimicrobial agent above which the selective proliferation of resistant mutants is expected to occur only rarely.

In test [9] the test system is S. pyogenes. The test is described as above. The format is cell-based. To be noted: S. pyogenes ATCC 49399.
Description: as §1

Test [10] relates to S. agalactiae. Described as above. It is filed as cell-based. The note with it: S. agalactiae ATCC 13813.
Description: as §1

Test [11] deals with Escherichia coli. Described as above. It is filed as cell-based.
Description: as §1

Test [12] concerns S. pneumonia. The description is as above. The format is cell-based. To be noted: S. pneumoniae ATCC 49619.
Description: as §1

The test system of test [13] is S. agalactiae ATCC 13813. Briefly: Time-kill assay. The format is cell-based, Streptococcus agalactiae. To be noted: 2×, 4×, 8× MIC; 2, 6, 24 hr.
[14] abbreviates: B. ovatus MMX 3504 (so in the source).
The mark [15] stands for this setting: E. coli ATCC 25922, selection 4X MIC, 0.06 μg/mL.
Where [16] appears, read: E. coli ATCC 35218, selection 4X MIC, 0.06 μg/mL.
[17] abbreviates: E. coli MMX 1312, selection 4X MIC, 0.06 μg/mL, TNTC = too numerous to count.

Take `C[C@@H](O)[C@H]1C(=O)N2C(C(=O)O)=C(S[C@@H]3CN[C@H](C(=O)N(C)C)C3)[C@H](C)[C@H]12` [meropenem]: the “Cumulative percentage of isolates inhibited at MIC” value in [1] (MIC 0.015 μg/mL) amounted to 16.7%; in [1] (MIC 0.03 μg/mL), 36.7%; in test [1] (MIC 0.06 μg/mL), 76.7%; in [1] (MIC ≤0.008 μg/mL) it was 6.7%; in [2] (MIC 0.06 μg/mL) it was 6.9%; in [2] (MIC 0.5 μg/mL), 75.9%. The “Cumulative percentage of isolates inhibited at MIC” value is 82.8% in test [2] (MIC 1 μg/mL), 93.1% in test [2] (MIC 2 μg/mL), 96.6% in [2] (MIC 4 μg/mL) and 100.0% in test [2] (MIC >8 μg/mL). Moreover, the “Number of test isolates at MIC” value in test [1] (MIC 0.015 μg/mL) is reported as 3; in test [1] (MIC 0.03 μg/mL) it was 6; in [1] (MIC 0.06 μg/mL) it was 12; in [1] (MIC ≤0.008 μg/mL) it was 2; in [2] (MIC 0.06 μg/mL) it was 2; in [2] (MIC 0.5 μg/mL), 10. Besides, the “Number of test isolates at MIC” value is reported as 2 in [2] (MIC 1 μg/mL), 3 in test [2] (MIC 2 μg/mL), 1 in test [2] (MIC 4 μg/mL) and 1 in test [2] (MIC >8 μg/mL). In addition, the MIC (as a rule, the lowest concentration that inhibits growth of the organism) is 0.12 µg/mL (≈ 0.313 µM) in test [3] (setting [14]); 0.12 µg/mL (≈ 0.313 µM) in test [3] (Bacteroides ovatus, MMX3503, broth microdilution, read-out: MIC); 0.12 µg/mL (≈ 0.313 µM) in test [4] (B. vulgatus ATCC 8482); 0.12 µg/mL (≈ 0.313 µM) in test [4] (Phocaeicola vulgatus, ATCC8482, broth microdilution, read-out: MIC); 0.015 µg/mL (≈ 0.0391 µM) in test [5] (read-out: Agar MIC, E. coli ATCC 25922); 0.015 µg/mL (≈ 0.0391 µM) in test [5] (read-out: Agar MIC, E. coli ATCC 35218). Further, the MIC was 0.015 µg/mL (≈ 0.0391 µM) in test [5] (read-out: Agar MIC, E. coli MMX 1312); 0.008 to 0.12 µg/mL (≈ 0.0209 to 0.313 µM) in [5] (read-out: MIC values (agar dilution), over evaluated E. coli isolates (range stated jointly with other groups)); 0.03 µg/mL (≈ 0.0782 µM) in [7] (Streptococcus agalactiae, S. agalactiae ATCC 13813, read-out: Agar MIC); 0.06 µg/mL (≈ 0.156 µM) in [7] (Streptococcus pneumoniae, S. pneumoniae ATCC 49619, read-out: Agar MIC); 0.008 µg/mL (≈ 0.0209 µM) in [7] (Streptococcus pyogenes, S. pyogenes ATCC 49399, read-out: Agar MIC); 0.008 to 0.12 µg/mL (≈ 0.0209 to 0.313 µM) in [7] (over evaluated Streptococcus spp. (range stated jointly with other groups), read-out: MIC values (agar dilution)). For the same compound, the results for the “time-kill kinetics outcome (bactericidal = ≥3 log reduction in CFU per mL)” value in test [6] and in test [13] were “all three drug concentrations tested demonstrated bactericidal effects at 24 hr” and “bactericidal effect at 24 hr at 8×MIC”, respectively. Further, the MPC stood at 0.5 µg/mL in test [8]; 0.03 µg/mL in [9]; 0.12 µg/mL in test [10]; 0.06 µg/mL in test [11] (E. coli ATCC 25922); 0.06 µg/mL in test [11] (E. coli ATCC 35218); 0.25 µg/mL in test [12]. In addition, the “Average Count” value in [8] (selection 4X MIC, 0.5 μg/mL) was found to be 0 CFU; in test [8] (selection 8X MIC, 1 μg/mL), 0 CFU; in test [9] (selection 4X MIC, 0.03 μg/mL) it was 0 CFU; in [9] (selection 8X MIC, 0.06 μg/mL) it was 0 CFU; in test [11], 0 CFU; in [11] (setting [15]), 0 CFU. Also, the “Average Count” value is 0 CFU in test [11] (setting [16]); “TNTC” in test [11] (setting [17]); 0 CFU in [12] (selection 8X MIC, 0.5 μg/mL). The “Count 1” value is given as 0 CFU in test [8] (selection 4X MIC, 0.5 μg/mL); 0 CFU in test [8] (selection 8X MIC, 1 μg/mL); 0 CFU in [9] (selection 4X MIC, 0.03 μg/mL); 0 CFU in test [9] (selection 8X MIC, 0.06 μg/mL); 0 CFU in [11]; 0 CFU in test [11] (setting [15]). The “Count 1” value in test [11] (setting [16]) was 0 CFU; in test [11] (setting [17]), “TNTC”; in test [12] (selection 8X MIC, 0.5 μg/mL), 0 CFU. Further, the “Count 2” value in test [8] (selection 4X MIC, 0.5 μg/mL) was 0 CFU; in [8] (selection 8X MIC, 1 μg/mL), 0 CFU; in test [9] (selection 4X MIC, 0.03 μg/mL), 0 CFU; in test [9] (selection 8X MIC, 0.06 μg/mL) it was 0 CFU; in test [11], 0 CFU; in test [11] (setting [15]), 0 CFU. The “Count 2” value is on record as 0 CFU in test [11] (setting [16]); “TNTC” in test [11] (setting [17]); 0 CFU in test [12] (selection 8X MIC, 0.5 μg/mL). Further, the “Spontaneous Mutation Frequency” value is ≤1.73 × 10^−10 in test [8] (selection 4X MIC, 0.5 μg/mL); ≤1.73 × 10^−10 in test [8] (selection 8X MIC, 1 μg/mL); ≤1.81 × 10^−10 in test [9] (selection 4X MIC, 0.03 μg/mL); ≤1.81 × 10^−10 in test [9] (selection 8X MIC, 0.06 μg/mL); ≤7.41 × 10^−9 in [11] (setting [15]); ≤5.13 × 10^−9 in test [11] (setting [16]). In addition, in [12] (selection 8X MIC, 0.5 μg/mL), the “Spontaneous Mutation Frequency” value is recorded as ≤9.52 × 10^−10.

Take `CN[C@H](CC(C)C)C(=O)N[C@H]1C(=O)N[C@@H](CC(N)=O)C(=O)N[C@H]2C(=O)N[C@H]3C(=O)N[C@H](C(=O)N[C@H](C(=O)O)c4cc(O)cc(O)c4-c4cc3ccc4O)[C@H](O)c3ccc(c(Cl)c3)Oc3cc2cc(c3O[C@@H]2O[C@H](CO)[C@@H](O)[C@H](O)[C@H]2O[C@H]2C[C@](C)(N)[C@H](O)[C@H](C)O2)Oc2ccc(cc2Cl)[C@H]1O` [vancomycin, Vancomycin]: the MIC in test [3] (Bacteroides ovatus, MMX3503, B. ovatus MMX 3504 (so in the source), read-out: MIC) was more than 16 µg/mL; in [4] (Phocaeicola vulgatus, ATCC8482, B. vulgatus ATCC 8482, read-out: MIC), more than 16 µg/mL.

With “piperacillin/tazobactam [piperacillin-tazobactam]”, the figures for the MIC in test [3] (setting [14]) and in test [4] (B. vulgatus ATCC 8482) were more than 16 µg/mL and 4 µg/mL, respectively.

With `Cc1ncc([N+](=O)[O-])n1CCO` [MTZ], the “Cumulative percentage of isolates inhibited at MIC” value in test [1] (MIC 0.5 μg/mL) was found to be 46.7%; in test [1] (MIC 1 μg/mL), 76.7%; in test [1] (MIC 4 μg/mL), 83.3%; in test [1] (MIC 8 μg/mL), 96.7%; in [1] (MIC >32 μg/mL), 100.0%; in test [2] (MIC 0.5 μg/mL), 55.2%. For the same compound, the “Cumulative percentage of isolates inhibited at MIC” value in test [2] (MIC 1 μg/mL) is given as 75.9%; in [2] (MIC 2 μg/mL), 96.6%; in [2] (MIC >16 μg/mL), 100.0%. In addition, the “Number of test isolates at MIC” value in test [1] (MIC 0.5 μg/mL) stood at 8; in [1] (MIC 1 μg/mL), 9; in test [1] (MIC 4 μg/mL), 2; in [1] (MIC 8 μg/mL), 4; in test [1] (MIC >32 μg/mL), 1; in test [2] (MIC 0.5 μg/mL) it was 12. For the same compound, the “Number of test isolates at MIC” value in test [2] (MIC 1 μg/mL) turned out to be 6; in test [2] (MIC 2 μg/mL) it was 6; in [2] (MIC >16 μg/mL), 1.
